From patent US11873298B2, “Compounds and uses thereof” (JANSSEN PHARMACEUTICA NV, priority 2017, dated 2024)

Assays:
[1] = molecular target: T1, SCD1 (Homo sapiens, UniProt O00767); experiment: Growth inhibition of humanized yeast strain expressing SCD1 as sole desaturase; format: cell-based
T1 construct: host or cells: S. cerevisiae ole1Δ strain (W303 pdr1Δ pdr3Δ background), plasmid pRS316 with TDH3 promoter and CYC1 terminator
T1 sequence (O00767 1-359): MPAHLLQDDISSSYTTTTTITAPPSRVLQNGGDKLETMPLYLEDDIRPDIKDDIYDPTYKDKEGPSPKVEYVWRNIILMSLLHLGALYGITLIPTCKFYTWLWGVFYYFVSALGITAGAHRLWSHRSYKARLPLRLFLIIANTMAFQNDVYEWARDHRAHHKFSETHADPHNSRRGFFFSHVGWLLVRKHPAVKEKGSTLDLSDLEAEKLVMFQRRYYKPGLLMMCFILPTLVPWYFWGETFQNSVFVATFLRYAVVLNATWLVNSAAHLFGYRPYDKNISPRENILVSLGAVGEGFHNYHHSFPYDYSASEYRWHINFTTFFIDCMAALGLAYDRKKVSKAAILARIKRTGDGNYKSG
Method in brief: (§1)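 OD600 growth read-out. ole1Δ yeast, pdr1Δ pdr3Δ, with Ole1/SCD1/SCD5 on a plasmid; SX-Ura media throughout; 2× cell density 0.02 in CSM-Galactose; DMSO compound dilutions; humidified 30° C.; Ole1 stopped at 24 h, SCD1/SCD5 at 40 h.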

[2] = molecular target: T2, SCD5 (Homo sapiens, UniProt Q86SK9); experiment: Growth inhibition of humanized yeast strain expressing SCD5 as sole desaturase; format: cell-based
T2 construct: host or cells: S. cerevisiae ole1Δ strain (W303 pdr1Δ pdr3Δ background), plasmid pRS316 with TDH3 promoter and CYC1 terminator
T2 sequence (Q86SK9 1-330): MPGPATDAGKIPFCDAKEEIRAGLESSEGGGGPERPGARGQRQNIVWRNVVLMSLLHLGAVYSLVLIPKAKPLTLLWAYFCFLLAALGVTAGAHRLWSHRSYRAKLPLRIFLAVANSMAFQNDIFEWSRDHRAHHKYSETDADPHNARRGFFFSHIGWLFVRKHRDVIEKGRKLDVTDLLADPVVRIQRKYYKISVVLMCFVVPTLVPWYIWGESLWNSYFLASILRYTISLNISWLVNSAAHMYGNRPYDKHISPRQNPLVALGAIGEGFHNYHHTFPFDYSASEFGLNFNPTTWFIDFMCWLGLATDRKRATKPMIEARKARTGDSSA
Method in brief: as §1

[3] = growth inhibition of humanized yeast strain expressing human SCD1
[4] = growth inhibition of humanized yeast strain expressing human SCD5
[5] = humanized yeast strain expressing SCD1
[6] = humanized yeast strain expressing SCD5

| SMILES | IC50 ([1]; humanized yeast strain, 40 h) | IC50 ([2]; humanized yeast strain, 40 h) | also measured |
| --- | --- | --- | --- |
| COC(=O)N1CCC(c2noc(-c3ccc4cnn(C5CCCC5)c4c3)n2)CC1 [Compound 1042] | > 45 µM | 0.079 µM |  |
| CCC(=O)N1CCC(c2nc(-c3ccc4onc(C(C)C)c4c3)no2)CC1 [Compound 940] | > 45 µM | 31.2 µM |  |
| O=C(c1ncccc1F)N1CCC(c2noc(-c3ccc4cnn(C5COC5)c4c3)n2)CC1 [Compound 881] | > 45 µM | 0.01 µM |  |
| O=C(CC1CC1)N1CCN(c2nc(-c3ccc4cnn(C5COC5)c4c3)no2)CC1 [Compound 659] |  |  | IC50 [1, 3]: > 45 µM; IC50 [2, 4]: 4.2 µM |
| CC(C)n1ncc2ccc(-c3noc(C4CCN(S(=O)(=O)C5CCCCC5)CC4)n3)cc21 [Compound 516] |  |  | IC50 [1, 5]: > 45 µM; IC50 [2, 6]: > 45 µM |
| COC(=O)N1CCCN(c2noc(-c3ccc4cnn(C5COC5)c4c3)n2)CC1 [Compound 857] | > 45 µM | 26.8 µM |  |
| CC1(OC(=O)N2CCC(c3nnc(-c4ccc5cnn(C6COC6)c5c4)o3)CC2)CCC1 [Compound 981] | > 45 µM | 0.045 µM |  |
| COC(=O)N1CCC(c2noc(-c3ccc4cnn(C(C)C)c4c3)n2)CC1 [Compound 629] |  |  | IC50 [1, 3]: > 45 µM; IC50 [2, 4]: 0.03 µM |
| CC(C)(C)OC(=O)N1CCC(/C(N)=N/OC(=O)c2ccc3cnn(C4COC4)c3c2)CC1 [Compound 1134] | > 45 µM | 0.0269 µM |  |
| CC(C)(C)OC(=O)N1CCC(c2nnc(-c3ccc4cnn(C5COC5)c4c3)o2)CC1 [Compound 851] | > 45 µM | 0.065 µM |  |
| CC(C)(C)OC(=O)N1CCC(c2noc(-c3cc(F)c4cnn(C5CCOC5)c4c3)n2)CC1 (stereo not shown) [Compound 1075] | 4.4 µM | 0.01 µM |  |
| CC(C)(C)OC(=O)N1CCC(c2nc(N3CC4(COC4)C3)no2)CC1 [Compound 806] | > 45 µM | > 45 µM |  |
| CC(C)(C(=O)N1CCC(c2noc(-c3ccnc(C4CCOC4)c3)n2)CC1)C(F)(F)F (stereo not shown) [Compound 1175] | > 45 µM | 0.21 µM |  |
| COC1(C(=O)N2CCC(c3noc(-c4ccc5cnn(C(C)C)c5c4)n3)CC2)CC1 [Compound 799] | > 45 µM | 0.01 µM |  |
| CC(C)(C)OC(=O)N1CCC(c2nc(-c3ccc4cn(C5CN(C(=O)OC(C)(C)C)C5)nc4c3)no2)CC1 [Compound 656] |  |  | IC50 [1, 3]: > 45 µM; IC50 [2, 4]: > 45 µM |
| CC(C)(C)OC(=O)N1CCC(c2cc(-c3ccc4cnn(C5COC5)c4c3)on2)CC1 [Compound 1026] | 3.98 µM | 0.2 µM |  |
| O=C(c1nccs1)N1CCN(c2nc(-c3ccc4cnn(C5COC5)c4c3)no2)CC1 [Compound 740] |  |  | IC50 [1, 3]: > 45 µM; IC50 [2, 4]: 1.43 µM |
| Cc1nn(C)c2cc(-c3nc(C4CCN(S(=O)(=O)C5CC5)CC4)no3)ccc12 [Compound 922] | > 45 µM | 6.56 µM |  |
| CC(C)(C)OC(=O)N1CCC(c2nc(-c3ccc4cn(C5CCOC5)nc4c3)no2)CC1 (stereo not shown) [Compound 655] |  |  | IC50 [1, 3]: > 45 µM; IC50 [2, 4]: > 45 µM |

| SMILES | IC50 ([1]; humanized yeast strain, 40 h) | IC50 ([2]; humanized yeast strain, 40 h) | also measured |
| --- | --- | --- | --- |
| CC1(OC(=O)N2CCN(c3noc(-c4ccnc(NC5COC5)c4)n3)CC2)CC1 [Compound 1008] | > 45 µM | 2.02 µM |  |
| COC(=O)N1CCC(c2nc(N3CCc4cnn(C(C)C)c4C3)no2)CC1 [Compound 908] | > 45 µM | 0.19 µM |  |
| CC(C)(C)OC(=O)N1CCC(c2noc(-c3ccccc3N3CCOCC3)n2)CC1 [Compound 1145] | > 45 µM | 11.1 µM |  |
| CC(C)n1ncc2ccc(-c3noc(C4CCCN(C(=O)OC(C)(C)C)C4)n3)cc21 (stereo not shown) [Compound 563] |  |  | IC50 [1, 5]: > 45 µM; IC50 [2, 6]: > 45 µM |
| CC(C)n1ncc2ccc(-c3noc(N4CCN(C(=O)OC5CC5)CC4)n3)cc21 [Compound 689] |  |  | IC50 [1, 3]: > 45 µM; IC50 [2, 4]: 0.657 µM |
| CC1(OC(=O)N2CCC(c3noc(-c4ccc5cnn(C6CS(=O)(=O)C6)c5c4)n3)CC2)CC1 [Compound 1060] | > 45 µM | 0.184 µM |  |
| CC(C)c1noc2ccc(-c3noc(C4CCN(C(=O)CC5(C)CC5)CC4)n3)cc12 [Compound 670] |  |  | IC50 [1, 3]: > 45 µM; IC50 [2, 4]: 3.79 µM |
| COC(=O)N1CCN(c2noc(-c3ccc4cnn(C5COC5)c4c3)n2)CC1 [Compound 713] |  |  | IC50 [1, 3]: 5.58 µM; IC50 [2, 4]: 0.01 µM |
| CC(C)(C)OC(=O)N1CCC(c2noc(-c3ccc4cnc(C5COC5)n4c3)n2)CC1 [Compound 909] | > 45 µM | 2.85 µM |  |
| CC(C)n1ncc2ccc(-c3noc(C4CCN(C(=O)CNC(=O)c5ccc(Cl)cc5)CC4(F)F)n3)cc21 (stereo not shown) [Compound 521] |  |  | IC50 [1, 5]: > 45 µM; IC50 [2, 6]: 8.79 µM |
| CC1(CC(=O)N2CCC(c3noc(-c4ccc5cnn(C6COC6)c5c4)n3)CC2)CC1 [Compound 886] | 10.6 µM | 0.06 µM |  |
| CN(C)CC(=O)N1CCN(c2nc(-c3ccc4cnn(C5COC5)c4c3)no2)CC1 [Compound 737] |  |  | IC50 [1, 3]: > 45 µM; IC50 [2, 4]: > 45 µM |
| COC(=O)N1CCC(c2noc(-c3ccc4cn(C5COC(C)(C)C5)nc4c3)n2)CC1 (stereo not shown) [Compound 1095] | > 45 µM | 11.1 µM |  |
| COC1(C(=O)N2CCN(c3noc(-c4ccc5cnn(C6COC6)c5c4)n3)CC2)CC1 [Compound 884] | > 45 µM | 0.01 µM |  |
| O=C(c1ccccc1F)N1CCC(c2noc(-c3ccnc(C4CCOC4)c3)n2)CC1 (stereo not shown) [Compound 1099] | > 45 µM | 1.88 µM |  |
| CC(C)(C)OC(=O)N1CCC(c2nc(-c3ccc4cnn(C5CN(C(=O)OC(C)(C)C)C5)c4c3)no2)CC1 [Compound 652] |  |  | IC50 [1, 3]: > 45 µM; IC50 [2, 4]: > 45 µM |
| CNC(=O)c1nc(-c2ccc3c(C)nn(C)c3c2)no1 [Compound 745] |  |  | IC50 [1, 3]: > 45 µM; IC50 [2, 4]: > 45 µM |
| CCC(=O)N1CCN(c2noc(-c3ccc4cnn(C5COC5)c4c3)n2)CC1 [Compound 841] | > 45 µM | 0.209 µM |  |
| CC(C)Nc1cc(-c2nc(N3CCN(C(=O)OC(C)(C)C)CC3)no2)ccn1 [Compound 809] | > 45 µM | 0.124 µM |  |

| SMILES | IC50 ([1]; humanized yeast strain, 40 h) | IC50 ([2]; humanized yeast strain, 40 h) | also measured |
| --- | --- | --- | --- |
| O=C1CC(n2ncc3ccc(-c4nc(N5CCn6c(Cl)cnc6C5)no4)cc32)C1 [Compound 953] | > 45 µM | 0.01 µM |  |
| CC(C)(C)OC(=O)N1CCC(c2noc(-c3ccc4cnn(C5CS(=O)(=O)C5)c4c3)n2)CC1 [Compound 990] | > 45 µM | 0.01 µM |  |
| COC(=O)N1CCN(c2noc(-c3ccnc(NC4COC4)c3)n2)CC1 [Compound 947] | > 45 µM | > 45 µM |  |
| O=C(N1CCC(c2cc(-c3cc4c(cn3)cnn4C3COC3)on2)CC1)C1(F)CC1 [Compound 1110] | > 45 µM | 0.01 µM |  |
| O=C(OC1CC1)N1CCC(c2noc(-c3ccnc(C4CCOC4)c3)n2)CC1 (stereo not shown) [Compound 1098] | > 45 µM | 0.062 µM |  |
| CC(C)n1ncc2c1CN(c1noc(C3CCN(C(=O)OC(C)(C)C)CC3)n1)CC2 [Compound 893] | > 45 µM | 0.01 µM |  |
| O=C(C1CCC1)N1CCC(c2nc(-c3ccc4cnn(C5COC5)c4c3)no2)CC1 [Compound 1044] | > 45 µM | 0.593 µM |  |
| C[C@H]1C[C@@H](c2noc(-c3ccc4cnn(C5COC5)c4c3)n2)CCN1C(=O)OC(C)(C)C [Compound 1025] | > 45 µM | 0.01 µM |  |
| CC(=O)N1CC(n2ncc3ccc(-c4nc(N5CCNCC5)no4)cc32)C1 [Compound 937] | > 45 µM | > 45 µM |  |
| CO[C@H]1C[C@H](n2ncc3ccc(-c4noc(C5CCN(C(=O)OC(C)(C)C)CC5)n4)cc32)C1 [Compound 859] | > 45 µM | > 4 µM |  |
| CC(C)n1ncc2ccc(-c3nc(C4CCN(C(=O)OC(C)(C)C)C4)no3)cc21 (stereo not shown) [Compound 524] |  |  | IC50 [1, 5]: > 45 µM; IC50 [2, 6]: 2.5 µM |
| CC(C)(C)OC(=O)N1CCC(c2nc(-c3ccc4cnn([C@H]5C[C@@H](O)C5)c4c3)no2)CC1 [Compound 823] | > 45 µM | 0.119 µM |  |
| Cc1noc(N2CCN(c3nc(-c4ccc5cnn(C(C)C)c5c4)no3)CC2)n1 [Compound 657] |  |  | IC50 [1, 3]: > 45 µM; IC50 [2, 4]: 9.11 µM |
| CC(C)n1ncc2ccc(-c3noc(C4CCN(C(=O)CC5CC5(F)F)CC4)n3)cc21 (stereo not shown) [Compound 870] | > 45 µM | 4.26 µM |  |
| CC(C)n1ncc2ccc(-c3noc(N4CCN(C(=O)OC5(C)CC5)CC4)n3)cc21 [Compound 496] |  |  | IC50 [1, 5]: > 45 µM; IC50 [2, 6]: 0.445 µM |
| COC(=O)N1CCN(c2nc(-c3ccc4cnn(C5COC5)c4c3)no2)CC1 [Compound 636] |  |  | IC50 [1, 3]: > 45 µM; IC50 [2, 4]: 1.8 µM |
| Cc1nn(C)c2cc(-c3noc(C4CCN(C(=O)CNC(=O)c5cccc(C#N)c5)CC4(F)F)n3)ccc12 (stereo not shown) [Compound 604] |  |  | IC50 [1, 5]: > 45 µM; IC50 [2, 6]: 6.12 µM |
| COC(=O)N1CCC(c2nc(-c3ccc4onc(C(C)C)c4c3)no2)CC1 [Compound 646] |  |  | IC50 [1, 3]: > 45 µM; IC50 [2, 4]: 1.18 µM |
